Reference: patent US11040947B2, “Substituted quinazolines as matrix metalloproteinase-9 hemopexin domain inhibitors” (The Research Foundation for The State University of New York, priority 2017, dated 2021)

How the values were obtained:
[1] = system: HT1080 cells stably expressing GFP; assay: chorioallantoic membrane (CAM) assay, invasion; assay type: in vivo, chicken embryo; details: 100 μM stock solution (final estimated 0.5 μM), vs DMSO or 1f
Procedure: HT1080 cells stably expressing GFP were mixed with a type I collagen solution (3 mg/mL) and seeded atop the CAM to ensure the cells localized to a specific area. […] The invasion of cancer cells through the epithelium and basement membrane of the upper CAM into connecting tissue was examined by hematoxylin and eosin staining in addition to fluorescence microscopy for GFP^+ cells.

[2] = system: proMMP-9/MMP-2PEX chimera; assay: tryptophan fluorescence titration with chimera; assay type: binding
Procedure: A blue shift in proMMP-9 tryptophan fluorescence was monitored to determine the binding affinity of all compounds. Binding of a test compound to MMP-9 was assayed by observing the change of tryptophan emission upon binding. Purified recombinant MMP-9 (50 nmol/L) or MMP-9/MMP-2PEX (50 nmol/L) was diluted in buffer (50 mmol/L Tris-HCl, 60 mmol/L KCl, and 0.05% Tween 20, pH 7.4) in the presence or absence of the test compound. As a control for protein stability and loss, an analogous buffer solution was added to the protein. The protein sample was excited at 280 nm and emission scans were collected from 290 to 400 nm, using slit widths of 0.3 nm on a QM 4/200SE spectrofluorimeter with double excitation and emission monochromators. Three emission scans were collected and averaged at each concentration. The Kd was determined using the Prism software package (GraphPad V5) to fit the data to Equation (Δ). λmax=(λmax^∞×[2])/(Kd+[2]) (A) in which λmax is the wavelength at which maximal fluorescence of the protein was observed.
A chimera of proMMP-9 and MMP-2 in which the MMP-9 PEX domain was replaced by that of MMP-2, (proMMP-9/MMP-2PEX) was tested for analog binding.

[3] = system: FAK and PAX adhesion junctions in HT1080 cells; assay: focal adhesion complexes, immunofluorescence in HT1080 cells; assay type: cell-based, Human; details: 50 μM overnight
MMP-9 dimer = target: T1, MMP-9 dimer (Homo sapiens, UniProt P14780); assay: MMP-9 dimer formation, Myc/HA co-immunoprecipitation in HT1080 cells; assay type: cell-based; details: 50 μM overnight, compared to control compound 1f
T1 construct: expressed in transfected cells; host or cells: HT1080 human fibrosarcoma cells
T1 sequence (P14780 94-707): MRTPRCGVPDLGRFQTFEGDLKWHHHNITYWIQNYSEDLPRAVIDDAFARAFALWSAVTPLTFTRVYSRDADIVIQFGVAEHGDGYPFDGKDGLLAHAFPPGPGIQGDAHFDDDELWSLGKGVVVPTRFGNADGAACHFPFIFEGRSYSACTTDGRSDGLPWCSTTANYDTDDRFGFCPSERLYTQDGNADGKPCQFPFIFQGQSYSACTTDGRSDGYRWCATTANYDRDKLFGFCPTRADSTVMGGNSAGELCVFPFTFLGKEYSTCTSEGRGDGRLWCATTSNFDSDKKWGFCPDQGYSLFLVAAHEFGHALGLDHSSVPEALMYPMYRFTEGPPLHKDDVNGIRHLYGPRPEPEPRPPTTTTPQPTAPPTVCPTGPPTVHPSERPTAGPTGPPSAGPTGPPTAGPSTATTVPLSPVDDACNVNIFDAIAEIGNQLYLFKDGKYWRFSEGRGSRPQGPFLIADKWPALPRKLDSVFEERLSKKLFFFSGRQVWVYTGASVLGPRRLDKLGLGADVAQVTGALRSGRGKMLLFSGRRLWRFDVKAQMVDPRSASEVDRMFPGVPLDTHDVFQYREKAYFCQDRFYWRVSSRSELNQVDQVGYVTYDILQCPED
Description: Human fibroscarcoma HT1080 cells were co-transfected with MMP-9 cDNAs tagged with either a Myc or HA tag as previously reported. […] Using Myc antibody for immunoprecipitation and HA antibody for immunoblotting, the formation of dimeric MMP-9 was monitored.

[4] = system: MMP-9 at the cell surface of HT1080 cells; assay: MMP-9 cell surface localization, immunofluorescence in HT1080 cells; assay type: cell-based, Human
Procedure: HT1080 cells were fixed in 4% paraformaldehyde then subsequently incubated with anti-MMP-9 in addition to anti-α4 and/or β1 integrin antibodies to monitor relative levels of localization of these proteins at the cell surface. The cells were counterstained with DAPI nuclear dye.

[5] = system: EGFR^Tyr1068, AKT^Ser473, Erk1/2^Thr202/Tyr204 phosphorylation; assay: phosphorylation of EGFR and downstream targets in HT1080 cells; assay type: cell-based, Human; details: 50 μM overnight
[6] = system: Src^Tyr418, FAK^Tyr576/577, PAX^Tyr118 phosphorylation; assay: phosphorylation of Src and downstream targets in HT1080 cells; assay type: cell-based, Human; details: 50 μM
Procedure: (§1) HT1080 cells transiently co-transfected with tagged MMP-9 cDNAs were prepared as described above.

HT1080 cells = assay: cell adhesion to collagen or fibronectin coated plate; assay type: cell-based, Human; details: 37° C. 30 min
Procedure: A 96-well plate was coated with a thin layer of either collagen or fibronectin (5 μg/ml in PBS) substrate before use. HT1080 cells were then seeded onto wells and incubated at 37° C. for 30 min in the presence of various inhibitors. Wells were washed and cells were fixed in 4% paraformaldehyde and stained with DAPI. Images of each 96-well were microscopically captured and counted for the number of cells still adherent to the coated surface using automated computer software.

[7] = system: proMMP9-mediated migration of COS-1 cells; assay: two-dimensional dot migration assay, COS-1 cells stably expressing proMMP-9; assay type: cell-based
Procedure: (§2) To test whether compound 3c is specific for inhibiting only proMMP9-mediated migration, a two-dimensional dot migration assay was performed using COS-1 cells engineered to stably express vector control pQCXIP, proMMP-2, proMMP-9, or proMMP-14 cDNA vectors. An immunoblot was performed to confirm protein expression and proper localization of each MMP (MMP-2/-9 are secreted while MMP-14 is membrane bound).

[8] = system: HT1080 fibrosarcoma cells; assay: chronic toxicity in HT1080 cells; assay type: cell-based, Human; details: 100 μM, HT1080 cells re-treated every three days for nine days
Procedure: Compound 3c was evaluated for acute cytotoxicity. COS-1 cells stably expressing either vector control or proMMP-9 cDNA were treated with 50 μM 3c for 24 hours. As negative and positive controls, cells were treated with DMSO alone or 100 nM staurosporine (STS), an apoptosis inducer, respectively. […] A non-statistically significant 8% decrease in cell growth occurred after treatment with 50 μM of compound 3c. These experiments were repeated in endogenous MMP-9 expressing HT1080 fibrosarcoma cells, which were analyzed for chronic toxicity (cells were re-treated every three days for a total of nine days).

[9] = system: proMMP9-mediated migration of COS-1 cells; assay: two-dimensional collagen dot migration assay, COS-1 cells overexpressing proMMP-9; assay type: cell-based; details: 50 μM
Procedure: This assay was initially used to test the efficacy of analogs at a single concentration, 50 μM.
Cells were mixed with type I collagen solution with or without compound, dotted onto a 96-well plate, and allowed to migrate for 18 hours. They were then fixed, stained and scored for extent of migration.

[10] = system: proMMP-14-mediated migration of COS-1 cells; assay: two-dimensional dot migration assay, COS-1 cells stably expressing proMMP-14; assay type: cell-based
Procedure: as §2

[11] = target: T2, MMP-9 interaction with α4/β1 integrin (Homo sapiens, UniProt P14780); assay: co-immunoprecipitation of endogenous integrin with MMP-9 in HT1080 cells; assay type: cell-based; details: 50 μM
T2 construct: expressed in transfected cells; host or cells: HT1080 cells (MMP-9 transfected; integrin endogenous)
T2 sequence (P14780 94-707): as above
Procedure: as §1

[12] = system: proMMP-2-mediated migration of COS-1 cells; assay: two-dimensional dot migration assay, COS-1 cells stably expressing proMMP-2; assay type: cell-based
Procedure: as §2

[13] = target: T3, APMA-activated recombinant proMMP-9 (Homo sapiens, UniProt P14780); assay: MMP-9 catalytic activity with fluorogenic peptide; assay type: biochemical; details: 10 μM fluorogenic peptide, monitored over 2 hours
T3 construct: made in house
T3 sequence (P14780 107-707 limits assumed): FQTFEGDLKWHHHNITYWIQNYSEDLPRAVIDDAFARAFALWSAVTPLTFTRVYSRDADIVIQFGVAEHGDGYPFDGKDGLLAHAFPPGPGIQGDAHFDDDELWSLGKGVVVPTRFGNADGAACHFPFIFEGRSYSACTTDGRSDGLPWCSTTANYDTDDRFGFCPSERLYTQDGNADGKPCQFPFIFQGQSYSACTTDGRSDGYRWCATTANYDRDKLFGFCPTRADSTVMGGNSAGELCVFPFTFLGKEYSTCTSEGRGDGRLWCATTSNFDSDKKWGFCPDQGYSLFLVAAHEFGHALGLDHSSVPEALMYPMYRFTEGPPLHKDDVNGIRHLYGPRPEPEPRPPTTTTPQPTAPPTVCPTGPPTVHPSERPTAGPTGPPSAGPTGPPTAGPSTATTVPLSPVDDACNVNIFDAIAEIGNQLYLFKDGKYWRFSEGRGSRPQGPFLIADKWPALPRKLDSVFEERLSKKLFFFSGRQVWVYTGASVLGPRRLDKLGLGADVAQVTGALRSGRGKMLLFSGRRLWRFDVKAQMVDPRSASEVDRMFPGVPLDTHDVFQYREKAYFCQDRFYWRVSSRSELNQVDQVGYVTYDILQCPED
Procedure: Recombinant proMMP-9 protein was purified and incubated overnight in a 37° C. water bath in TNC buffer+1 mM APMA to artificially activate the protein.

proMMP-9 = target: T4, proMMP-9 (Homo sapiens, UniProt P14780); assay: proMMP-9 tryptophan fluorescence blue shift binding assay
T4 construct: Purified recombinant MMP-9 (50 nmol/L) or MMP-9/MMP-2PEX (50 nmol/L) was diluted in buffer
T4 sequence (P14780 20-707 limits assumed): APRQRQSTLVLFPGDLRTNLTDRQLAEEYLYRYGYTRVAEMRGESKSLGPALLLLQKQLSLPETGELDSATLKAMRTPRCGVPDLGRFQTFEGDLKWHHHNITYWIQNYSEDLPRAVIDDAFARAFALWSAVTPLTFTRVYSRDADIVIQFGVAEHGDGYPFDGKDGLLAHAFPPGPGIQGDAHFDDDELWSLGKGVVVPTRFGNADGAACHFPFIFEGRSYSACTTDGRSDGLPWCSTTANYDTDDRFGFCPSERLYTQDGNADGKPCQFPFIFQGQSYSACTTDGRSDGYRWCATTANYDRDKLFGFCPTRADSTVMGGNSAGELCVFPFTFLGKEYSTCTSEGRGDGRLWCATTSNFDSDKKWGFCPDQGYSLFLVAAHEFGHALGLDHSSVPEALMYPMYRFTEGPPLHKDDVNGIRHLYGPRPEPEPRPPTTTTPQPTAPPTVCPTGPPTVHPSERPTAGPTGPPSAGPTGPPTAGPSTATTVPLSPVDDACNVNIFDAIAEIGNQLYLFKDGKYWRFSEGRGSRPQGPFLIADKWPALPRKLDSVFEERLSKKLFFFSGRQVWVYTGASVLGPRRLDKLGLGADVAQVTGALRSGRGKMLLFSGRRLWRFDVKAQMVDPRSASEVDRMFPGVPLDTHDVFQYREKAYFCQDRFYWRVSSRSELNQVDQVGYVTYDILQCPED

O=C(CCCSc1nc2c(c(=O)[nH]1)CCCC2)Nc1ccc(F)cc1 [Compound 3c, N-(4-Fluorophenyl)-4-(4-oxo-3,4,5,6,7,8-hexahydroquinazolin-2-ylthio)butanamide]
invasion of CAM tissue [1]: reduced invasion of CAM tissue
shift in fluorescence upon titration with chimera [2]: no shift in fluorescence was observed
formation of FAK and PAX adhesion junctions [3]: A decrease in the formation of FAK and PAX adhesion junctions
MMP-9 dimer formation (MMP-9 dimer): significantly blocked MMP-9 dimer formation
localization of MMP-9 on the cell surface [4]: loss of MMP-9 from the cell surface
phosphorylation of EGFR^Tyr1068 and downstream targets AKT^Ser473 and Erk1/2^Thr202/Tyr204 [5]: reduced phosphorylation
Src^Tyr418 phosphorylation and phosphorylation of FAK^Tyr576/577 and PAX^Tyr118 [6]: reduced Src^Tyr418 phosphorylation
cellular adhesion (HT1080 cells): inhibited cellular adhesion
effectiveness at inhibiting migration compared with 1a [7]: significantly more effective at inhibiting migration
inhibition of proMMP-9-mediated migration [7]: only inhibited proMMP9-mediated migration
cell death, chronic toxicity [8]: No cell death was observed
effectiveness among the tested compounds in migration assay [9]: most effective
inhibition at 50 µM ([9]; Chlorocebus aethiops, 18 hours): 90 ± 2%
inhibition of proMMP-14-mediated migration [10]: only inhibited proMMP9-mediated migration
endogenous α4β3 integrin co-immunoprecipitation [11]: reduced endogenous α4β3 integrin co-immunoprecipitation
inhibition of proMMP-2-mediated migration [12]: only inhibited proMMP9-mediated migration
inhibition of MMP-9 catalytic activity [13]: No inhibition of the catalytic activity was observed
binding to proMMP-9 relative to parent compound 1a (proMMP-9; Kd compared with 1a): four times tighter
Kd (proMMP-9; binding to proMMP-9, tryptophan fluorescence): 320 nM
